Experimental data from publication PMC9264404 (Toxicology and applied pharmacology, 2021).
Like-named read-outs stand apart in the source and are kept apart here.

Legend:
[1] = Pharmacokinetics in human volunteers after oral microdose of 29 ng [14C]-DBC; format: in vivo
[2] = cited from earlier work
[3] = system: hepatic microsomes of humans; conditions: DBC metabolism, human hepatic microsomes, MM model; cited from earlier work
[4] = Pharmacokinetics in mice after oral gavage of 15 mg/kg DBC; format: in vivo, female B6129SF1/J mice
[5] = system: hepatic microsomes of mice; conditions: cited from earlier work
mice = conditions: cited from earlier work
[6] = average of human volunteers, 29 ng DBC oral
[7] = DBC metabolism, mouse hepatic microsomes, MM model

c1ccc2c(c1)cc1ccc3cccc4c5ccccc5c2c1c34 [DBC, dibenzo[def,p]chrysene]
% Excreted ([1]; Average of volunteers, urine): 1.39%
peak concentration relative to peak DBC-11,12-diol concentration [1, 6]: 10 times
% Excreted ([1]; volunteer V5, urine): 2.11%
% Excreted ([1]; volunteer V6, urine): 1.48%
% Excreted ([1]; volunteer V8, urine): 1.20%
% Excreted ([1]; volunteer V9, urine): 0.70%
% Excreted ([1]; volunteer V10, urine): 1.93%
% Excreted ([1]; volunteer V13, urine): 0.92%
Peak concentration in blood [2, 6]: 74.8 fM
time of peak concentration in blood [2, 6]: around 1 hr
Eliminated Total (sum of all DBC metabolites excreted in urine) ([2]; volunteer V5, oral dose 25.2 ng): 0.532 ng 14C-DBCeq
Eliminated Total (sum of all DBC metabolites excreted in urine) ([2]; volunteer V6, oral dose 29.8 ng): 0.441 ng 14C-DBCeq
Eliminated Total (sum of all DBC metabolites excreted in urine) ([2]; volunteer V8, oral dose 23.9 ng): 0.285 ng 14C-DBCeq
Eliminated Total (sum of all DBC metabolites excreted in urine) ([2]; volunteer V9, oral dose 28.5 ng): 0.200 ng 14C-DBCeq
Eliminated Total (sum of all DBC metabolites excreted in urine) ([2]; volunteer V10, oral dose 25.6 ng): 0.494 ng 14C-DBCeq
Eliminated Total (sum of all DBC metabolites excreted in urine) ([2]; volunteer V13, oral dose 28.5 ng): 0.263 ng 14C-DBCeq
Peak concentration in blood ([2]; volunteers 8 and 9 (both), 29 ng DBC oral): ~ 100 fM
time of peak concentration in blood ([2]; volunteers 8 and 9, 29 ng DBC oral): 1 to 2 h
Km [3]: 0.915 µM
Vmax [3]: 0.27 nmol/min/mg
Peak concentration in blood ([4]; 15 mg/kg DBC oral): around 3.5 μM
concentration in blood at 48 hr post dosing ([4]; 15 mg/kg DBC oral): approximately 0.0075 μM
levels detected in urine ([4]; 15 mg/kg DBC oral): trace levels
time of peak concentration in blood ([4]; 15 mg/kg DBC oral): 3 to 5 h
percent of administered dose absorbed (amount of dose recovered in urine) ([4]; 15 mg/kg oral, used as model parameter): 0.311
Km [5, 7]: 6.63 µM
Vmax [5, 7]: 19.38 nmol/min/mg
DBC metabolism rate, mice compared to humans ([5]; after scaling to body weight to the ¾ power): 3 fold
transplacental carcinogenicity (mice; B6129F1/J mice, offspring of mothers exposed to DBC): cause T-cell lymphoma, lung adenoma and liver lesions in offspring
potency in producing lung adenomas relative to benzo[a]pyrene (B[a]P) (mice): 100 times
tumors after intraperitoneal exposure (mice; mice exposed intraperitoneally): lung and liver cancer
tumors after dermal exposure (mice; mice, dermal exposure): cause skin tumors
tumors after intramammary exposure (mice; mice, intramammary exposure): promote mammary tumors

Oc1c(O)c(O)c2c(cc3ccc4cccc5c6ccccc6c2c3c45)c1O [DBC-tetrols, dibenzo[def,p]chrysene-11,12,13,14-tetraol]
mean amount in urine relative to conjugated DBC-11,12-diol ([4]; 15 mg/kg DBC oral, 0–16 hr collection interval): 98.9 times
